Laboratory results from ChEMBL document CHEMBL1275550, “In vitro activity of doripenem, a carbapenem for the treatment of challenging infections caused by gram-negative bacteria, against recent clinical isolates from the United States” (2008).
Values after ≈ are worked out from the molar mass of the structure shown.

Key:
[1] = system: Pseudomonas aeruginosa; experiment: Antimicrobial activity against Ceftazidime non-susceptible Pseudomonas aeruginosa by broth microdilution method; format: functional
[2] = system: Serratia marcescens; experiment: Antimicrobial activity against Ceftazidime non-susceptible Serratia marcescens by broth microdilution method; format: functional
[3] = system: Proteus mirabilis; experiment: Antimicrobial activity against Non-ESBL Proteus mirabilis assessed as susceptible isolate by broth microdilution method; format: functional
[4] = system: Staphylococcus aureus; experiment: Antimicrobial activity against methicillin-resistant Staphylococcus aureus by broth microdilution method; format: functional
[5] = system: Klebsiella pneumoniae; experiment: Antimicrobial activity against ESBL producing Klebsiella pneumoniae assessed as susceptible isolate by broth microdilution method; format: functional
[6] = system: Serratia marcescens; experiment: Antimicrobial activity against Serratia marcescens by broth microdilution method; format: functional
[7] = system: Pseudomonas aeruginosa; experiment: Antimicrobial activity against imipenem susceptible Pseudomonas aeruginosa by broth microdilution method; format: functional
[8] = system: Pseudomonas aeruginosa; experiment: Antimicrobial activity against Ceftazidime susceptible Pseudomonas aeruginosa assessed as susceptible isolate by broth microdilution method; format: functional
[9] = system: Enterobacteriaceae; experiment: Antimicrobial activity against Ceftazidime non-susceptible Enterobacteriaceae assessed as susceptible isolate by broth microdilution method; format: functional
[10] = system: Enterobacter cloacae; experiment: Antimicrobial activity against Enterobacter cloacae by broth microdilution method; format: functional
[11] = system: Enterobacter cloacae; experiment: Antimicrobial activity against Enterobacter cloacae with derepressed AmpC beta-lactamsae assessed as susceptible isolate by broth microdilution method; format: functional
[12] = system: Proteus mirabilis; experiment: Antimicrobial activity against Proteus mirabilis assessed as susceptible isolate by broth microdilution method; format: functional
[13] = system: Acinetobacter; experiment: Antimicrobial activity against imipenem non-susceptible Acinetobacter by broth microdilution method; format: functional
[14] = system: Enterobacter cloacae; experiment: Antimicrobial activity against Enterobacter cloacae with nonderepressed AmpC beta-lactamsae by broth microdilution method; format: functional
[15] = system: Escherichia coli; experiment: Antimicrobial activity against ESBL producing Escherichia coli assessed as susceptible isolate by broth microdilution method; format: functional
[16] = system: Streptococcus pneumoniae; experiment: Antimicrobial activity against penicillin-resistant Streptococcus pneumoniae by broth microdilution method; format: functional; conditions: Streptococcus pneumoniae
[17] = system: Klebsiella pneumoniae; experiment: Antimicrobial activity against Klebsiella pneumoniae by broth microdilution method; format: functional
[18] = system: Pseudomonas aeruginosa; experiment: Antimicrobial activity against Pseudomonas aeruginosa by broth microdilution method; format: functional
[19] = system: Klebsiella pneumoniae; experiment: Antimicrobial activity against Non-ESBL Klebsiella pneumoniae by broth microdilution method; format: functional
[20] = system: Enterobacter cloacae; experiment: Antimicrobial activity against Enterobacter cloacae with nonderepressed AmpC beta-lactamsae assessed as susceptible isolate by broth microdilution method; format: functional
[21] = system: Escherichia coli; experiment: Antimicrobial activity against Escherichia coli by broth microdilution method; format: functional
[22] = system: Serratia marcescens; experiment: Antimicrobial activity against Ceftazidime susceptible Serratia marcescens by broth microdilution method; format: functional
[23] = system: Staphylococcus aureus; experiment: Antimicrobial activity against methicillin-susceptible Staphylococcus aureus by broth microdilution method; format: functional; conditions: Staphylococcus aureus
[24] = system: Escherichia coli; experiment: Antimicrobial activity against Escherichia coli assessed as susceptible isolate by broth microdilution method; format: functional
[25] = system: Proteus mirabilis; experiment: Antimicrobial activity against ESBL producing Proteus mirabilis assessed as susceptible isolate by broth microdilution method; format: functional
[26] = system: Streptococcus pneumoniae; experiment: Antimicrobial activity against penicillin-intermediate Streptococcus pneumoniae by broth microdilution method; format: functional
[27] = system: Citrobacter; experiment: Antimicrobial activity against Citrobacter assessed as susceptible isolate by broth microdilution method; format: functional
[28] = system: Pseudomonas aeruginosa; experiment: Antimicrobial activity against Pseudomonas aeruginosa isolated from non-ICU patient by broth microdilution method
[29] = system: Citrobacter; experiment: Antimicrobial activity against Citrobacter with nonderepressed AmpC beta-lactamsae by broth microdilution method; format: functional
[30] = system: Pseudomonas aeruginosa; experiment: Antimicrobial activity against imipenem non-susceptible Pseudomonas aeruginosa assessed as susceptible isolate by broth microdilution method; format: functional
[31] = system: Acinetobacter; experiment: Antimicrobial activity against imipenem susceptible Acinetobacter assessed as susceptible isolate by broth microdilution method; format: functional
[32] = system: Pseudomonas aeruginosa; experiment: Antimicrobial activity against Pseudomonas aeruginosa isolated from ICU patient by broth microdilution method; format: functional
[33] = system: Escherichia coli; experiment: Antimicrobial activity against ESBL producing Escherichia coli by broth microdilution method; format: functional
[34] = system: Proteus mirabilis; experiment: Antimicrobial activity against Proteus mirabilis by broth microdilution method; format: functional
[35] = system: Enterobacteriaceae; experiment: Antimicrobial activity against Ceftazidime non-susceptible Enterobacteriaceae by broth microdilution method; format: functional
[36] = system: Citrobacter; experiment: Antimicrobial activity against Citrobacter with nonderepressed AmpC beta-lactamsae assessed as susceptible isolate by broth microdilution method; format: functional
[37] = system: Acinetobacter; experiment: Antimicrobial activity against Acinetobacter assessed as susceptible isolate by broth microdilution method; format: functional
[38] = system: Pseudomonas aeruginosa; experiment: Antimicrobial activity against imipenem non-susceptible Pseudomonas aeruginosa by broth microdilution method; format: functional

C[C@@H](O)[C@H]1C(=O)N2C(C(=O)O)=C(S[C@@H]3CN[C@H](CNS(N)(=O)=O)C3)[C@H](C)[C@H]12 [DORIPENEM]
MIC50 [1]: 1 µg/mL (≈ 2.38 µM)
MIC90 [1]: 16 µg/mL (≈ 38 µM)
MIC50 [2]: 0.12 µg/mL (≈ 0.285 µM)
MIC90 [2]: 0.25 µg/mL (≈ 0.595 µM)
Activity [3]: 98.9%
MIC50 [4]: 0.5 µg/mL (≈ 1.19 µM)
MIC90 [4]: 8 µg/mL (≈ 19 µM)
Activity [5]: 95.5%
MIC50 [6]: 0.12 µg/mL (≈ 0.285 µM)
MIC90 [6]: 0.25 µg/mL (≈ 0.595 µM)
MIC50 [7]: 0.25 µg/mL (≈ 0.595 µM)
MIC90 [7]: 1 µg/mL (≈ 2.38 µM)
Activity [8]: 92.3%
Activity [9]: 96.7%
MIC50 [10]: 0.03 µg/mL (≈ 0.0713 µM)
MIC90 [10]: 0.12 µg/mL (≈ 0.285 µM)
Activity [11]: 99%
Activity [12]: 98.9%
MIC50 [13]: 32 µg/mL (≈ 76.1 µM)
MIC90 [13]: > 32 µg/mL
MIC50 [14]: 0.03 µg/mL (≈ 0.0713 µM)
MIC90 [14]: 0.06 µg/mL (≈ 0.143 µM)
Activity [15]: 100%
MIC50 ([16]; read-out: MIC50): 0.5 µg/mL (≈ 1.19 µM)
MIC90 ([16]; read-out: MIC90): 1 µg/mL (≈ 2.38 µM)
MIC50 [17]: 0.03 µg/mL (≈ 0.0713 µM)
MIC90 [17]: 0.06 µg/mL (≈ 0.143 µM)
MIC50 [18]: 0.25 µg/mL (≈ 0.595 µM)
MIC90 [18]: 4 µg/mL (≈ 9.51 µM)
MIC50 [19]: 0.03 µg/mL (≈ 0.0713 µM)
MIC90 [19]: 0.06 µg/mL (≈ 0.143 µM)
Activity [20]: 99.3%
MIC [21]: ≤ 0.015 µg/mL
MIC50 [21]: ≤ 0.015 µg/mL
MIC90 [21]: 0.03 µg/mL (≈ 0.0713 µM)
MIC50 [22]: 0.12 µg/mL (≈ 0.285 µM)
MIC90 [22]: 0.25 µg/mL (≈ 0.595 µM)
MIC50 ([23]; read-out: MIC50): 0.03 µg/mL (≈ 0.0713 µM)
MIC90 ([23]; read-out: MIC90): 0.06 µg/mL (≈ 0.143 µM)
Activity [24]: 99.8%
Activity [25]: 100%
MIC50 [26]: 0.03 µg/mL (≈ 0.0713 µM)
MIC90 [26]: 0.5 µg/mL (≈ 1.19 µM)
Activity [27]: 99.8%
Activity [28]: 87.9%
MIC50 [29]: 0.03 µg/mL (≈ 0.0713 µM)
MIC90 [29]: 0.06 µg/mL (≈ 0.143 µM)
Activity [30]: 55.6%
Activity [31]: 89.1%
MIC50 [32]: 0.5 µg/mL (≈ 1.19 µM)
MIC90 [32]: 8 µg/mL (≈ 19 µM)
MIC50 [33]: 0.03 µg/mL (≈ 0.0713 µM)
MIC90 [33]: 0.06 µg/mL (≈ 0.143 µM)
MIC50 [34]: 0.12 µg/mL (≈ 0.285 µM)
MIC90 [34]: 0.5 µg/mL (≈ 1.19 µM)
MIC50 [35]: 0.06 µg/mL (≈ 0.143 µM)
MIC90 [35]: 0.25 µg/mL (≈ 0.595 µM)
Activity [36]: 99.8%
Activity [37]: 73.4%
MIC50 [38]: 2 µg/mL (≈ 4.76 µM)
MIC90 [38]: 16 µg/mL (≈ 38 µM)
